This is an account of results in publication PMC11378702 (RSC Advances, 2024).

Usually IC50 stands for the midpoint of a concentration-inhibition curve.

Read-outs that look alike come from different tables or passages of the source.

Test [1] concerns H1975. Description: MTT anti-proliferative assay, H1975 cells. It counts as cell-based. As to conditions: Homo sapiens, NCI-H1975, 48 h, read-out: IC50 (μM) H1975.
The test system of test [2] is A549. As to the kind of experiment: cells. It counts as cell-based. As to conditions: Homo sapiens, A549, 48 h, read-out: IC50 (μM) A549.
In test [3] the target is EGFR^T790M (Homo sapiens, UniProt P00533, T790M). As to the kind of experiment: biochemical. In kind it is biochemical.
EGFR^T790M, sequence (P00533 25-1210 T790M): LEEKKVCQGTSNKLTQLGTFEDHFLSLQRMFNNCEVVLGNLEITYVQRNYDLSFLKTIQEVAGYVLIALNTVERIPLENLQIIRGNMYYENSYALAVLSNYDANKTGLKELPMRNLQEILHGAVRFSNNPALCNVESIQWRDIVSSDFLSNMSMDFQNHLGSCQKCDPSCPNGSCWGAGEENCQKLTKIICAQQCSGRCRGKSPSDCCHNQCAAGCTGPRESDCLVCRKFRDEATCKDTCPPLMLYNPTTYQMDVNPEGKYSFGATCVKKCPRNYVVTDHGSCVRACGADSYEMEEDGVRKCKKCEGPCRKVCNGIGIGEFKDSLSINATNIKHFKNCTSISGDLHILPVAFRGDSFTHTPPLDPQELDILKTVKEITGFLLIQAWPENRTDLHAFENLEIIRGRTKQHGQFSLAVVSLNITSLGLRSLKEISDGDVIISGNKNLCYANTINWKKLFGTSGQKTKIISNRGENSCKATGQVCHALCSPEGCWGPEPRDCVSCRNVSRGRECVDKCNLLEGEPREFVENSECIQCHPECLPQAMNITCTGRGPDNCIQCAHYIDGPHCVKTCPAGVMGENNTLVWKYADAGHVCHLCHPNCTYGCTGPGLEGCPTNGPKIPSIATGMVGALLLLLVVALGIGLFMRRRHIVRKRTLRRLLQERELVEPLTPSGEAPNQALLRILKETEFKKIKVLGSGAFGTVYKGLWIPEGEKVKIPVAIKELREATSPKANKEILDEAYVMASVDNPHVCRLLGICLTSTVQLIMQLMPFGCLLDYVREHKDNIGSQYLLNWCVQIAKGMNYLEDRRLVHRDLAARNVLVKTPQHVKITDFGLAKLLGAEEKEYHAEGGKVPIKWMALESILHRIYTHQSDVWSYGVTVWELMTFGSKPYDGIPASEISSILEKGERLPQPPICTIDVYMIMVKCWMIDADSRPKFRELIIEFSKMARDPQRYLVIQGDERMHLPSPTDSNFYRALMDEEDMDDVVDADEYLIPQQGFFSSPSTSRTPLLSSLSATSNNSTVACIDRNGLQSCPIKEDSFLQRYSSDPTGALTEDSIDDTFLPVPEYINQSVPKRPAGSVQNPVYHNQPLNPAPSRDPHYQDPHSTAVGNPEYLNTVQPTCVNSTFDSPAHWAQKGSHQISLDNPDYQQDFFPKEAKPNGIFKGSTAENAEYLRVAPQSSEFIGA
The target in test [4] is EGFR^WT (Homo sapiens, UniProt P00533). Description: biochemical.
EGFR^WT, sequence (P00533 25-1210): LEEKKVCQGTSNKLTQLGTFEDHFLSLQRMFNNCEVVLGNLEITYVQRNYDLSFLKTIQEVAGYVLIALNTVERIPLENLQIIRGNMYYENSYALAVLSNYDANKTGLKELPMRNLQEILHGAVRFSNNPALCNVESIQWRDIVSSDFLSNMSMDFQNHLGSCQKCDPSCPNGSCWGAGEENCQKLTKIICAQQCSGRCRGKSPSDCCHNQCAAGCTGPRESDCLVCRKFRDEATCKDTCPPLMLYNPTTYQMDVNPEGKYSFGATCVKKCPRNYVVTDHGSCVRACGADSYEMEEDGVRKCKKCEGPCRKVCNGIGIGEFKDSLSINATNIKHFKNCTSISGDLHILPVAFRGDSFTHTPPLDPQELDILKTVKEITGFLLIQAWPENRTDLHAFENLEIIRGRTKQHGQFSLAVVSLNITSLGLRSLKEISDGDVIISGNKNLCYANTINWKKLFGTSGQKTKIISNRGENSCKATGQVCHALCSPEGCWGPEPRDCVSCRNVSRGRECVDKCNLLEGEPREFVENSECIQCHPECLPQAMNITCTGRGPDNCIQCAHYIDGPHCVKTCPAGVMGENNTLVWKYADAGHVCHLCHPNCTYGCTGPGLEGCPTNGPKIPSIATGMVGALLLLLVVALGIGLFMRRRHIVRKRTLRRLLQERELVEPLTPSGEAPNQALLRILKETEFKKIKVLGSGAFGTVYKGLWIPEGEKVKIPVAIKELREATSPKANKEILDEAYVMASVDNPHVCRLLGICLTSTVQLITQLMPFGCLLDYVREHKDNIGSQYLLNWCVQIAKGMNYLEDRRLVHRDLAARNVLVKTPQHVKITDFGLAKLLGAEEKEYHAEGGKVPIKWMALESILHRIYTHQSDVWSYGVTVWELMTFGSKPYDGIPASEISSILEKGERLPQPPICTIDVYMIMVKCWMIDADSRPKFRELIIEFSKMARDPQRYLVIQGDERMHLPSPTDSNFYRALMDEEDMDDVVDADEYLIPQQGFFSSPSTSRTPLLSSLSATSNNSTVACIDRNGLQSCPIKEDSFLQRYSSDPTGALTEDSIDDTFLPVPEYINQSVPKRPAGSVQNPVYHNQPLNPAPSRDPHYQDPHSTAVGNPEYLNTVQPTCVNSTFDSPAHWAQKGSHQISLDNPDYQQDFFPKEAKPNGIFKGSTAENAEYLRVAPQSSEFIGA
Test [5] has as its system A431. Description: MTT anti-proliferative assay, A431 cells. It counts as cell-based, human. As to conditions: read-out: IC50 (μM) A431. On the technique in general: Tetrazolium dyes change colour on reduction, which living cells bring about.

As to `CCC(=O)C(=NNc1ccc(S(=O)(=O)Nc2ncccn2)cc1)C(C)=O` [Compound 5, 4-(2-(2,4-Dioxohexan-3-ylidene)hydrazineyl)-N-(pyrimidin-2-yl)benzenesulfonamide], the 50% inhibitory concentration (IC50) in test [1] amounted to 20.1 ± 2.21 µM; in test [2], 19.2 ± 3.09 µM; in test [3], 0.0936 ± 0.0085 µM; in test [4], 0.0492 ± 0.0067 µM.
In the same order, the values of `CC(=O)C(=NNc1ccc(S(=O)(=O)Nc2ncccn2)cc1)C(C)=O` [Compound 6, 4-(2-(2,4-Dioxopentan-3-ylidene)hydrazineyl)-N-(pyrimidin-2-yl)benzenesulfonamide] are 15.7 ± 0.21 µM, 16.6 ± 0.92 µM, 0.0668 ± 0.0104 µM and 0.0526 ± 0.0093 µM.
As to `CC(=O)C(=NNc1ccc(S(=O)(=O)Nc2ncccn2)cc1)C(=O)c1ccccc1` [Compound 8, 4-[2-(1-Benzoyl-2-oxopropylidene)hydrazino]-N-pyrimidin-2-ylbenzenesulfonamide], the half-maximal inhibitory concentration (IC50) in test [1] is 2.31 ± 0.23 µM; in test [5] (MTT, two-day incubation, mean ± SD, n = 3), 4.12 ± 0.54 µM; in test [2], 4.78 ± 0.12 µM; in test [3] it was 0.0096 ± 0.0032 µM; in test [4], 0.0232 ± 0.0001 µM. For the same compound, the “fold more potent than gefitinib (EGFR^T790M IC50)” value in test [3] (relative to gefitinib) is reported as 38 fold.
In the case of `CCOC(=O)/C(C#N)=N\Nc1ccc(S(=O)(=O)Nc2ncccn2)cc1` [Compound 9, Ethyl (Z)-2-cyano-2-(2-(4-(N-(pyrimidin-2-yl)sulfamoyl)phenyl)hydrazineylidene)acetate], the IC50 in test [1] is 13.1 ± 0.67 µM; in test [2] it was 15 ± 1.27 µM; in test [3] it was 0.0171 ± 0.0001 µM; in test [4], 0.0435 ± 0.0002 µM.
In the same order, the values of `N#CC(=NNc1ccc(S(=O)(=O)Nc2ncccn2)cc1)C(N)=S` [Compound 10, 2-Cyano-(2-(4-(N-(pyrimidin-2-yl)sulfamoyl)phenyl)hydrazono)ethanethioamide] are 15.8 ± 2.48 µM, 19.7 ± 0.34 µM, 0.0608 ± 0.0062 µM and 0.0315 ± 0.0058 µM.
Take `N#CC(=NNc1ccc(S(=O)(=O)Nc2ncccn2)cc1)C(N)=C(C#N)C#N` [Compound 11, 2-Amino-3,3-dicyano-N-(4-(N-(pyrimidin-2-yl)sulfamoyl)phenyl)acrylohydrazonoyl cyanide]: the IC50 was 14.1 ± 1.23 µM in test [1]; 15.1 ± 0.58 µM in test [5] (Homo sapiens, A-431, 48 h); 13.6 ± 1.32 µM in test [2]; 0.133 ± 0.0162 µM in test [3]; 0.0477 ± 0.0114 µM in test [4].
As for `CCOC(=O)C(=NNc1ccc(S(=O)(=O)Nc2ncccn2)cc1)C(=O)OCC` [Compound 12, Diethyl 2-(2-(4-(N-(pyrimidin-2-yl)sulfamoyl)phenyl)hydrazineylidene)malonate], the IC50 in test [1] stood at 6.12 ± 0.24 µM; in test [2], 5.15 ± 0.3 µM; in test [3], 0.0354 ± 0.0086 µM; in test [4], 0.0145 ± 0.0075 µM.
For `CSC1=NC(=N)C(=NNc2ccc(S(=O)(=O)Nc3ncccn3)cc2)C(N)=C1C#N` [Compound 13, 4-{-2-[4-Amino-5-cyano-2-imino-6-(methylthio)pyridin-3(2H)-ylidene]hydrazino}-N-pyrimidin-2-ylbenzenesulfonamide] the same measures were 17.1 ± 1.62 µM, 15.5 ± 1.34 µM, 0.215 ± 0.0152 µM and 0.0417 ± 0.0082 µM.
In the case of `CSc1nc(NC(=O)C(=NNc2ccc(S(=O)(=O)Nc3ncccn3)cc2)C(C)=O)cc(N)c1C#N` [Compound 14, N-(4-Amino-5-cyano-6-(methylthio)pyridin-2-yl)-3-oxo-2-{[4-(pyrimidin-2-ylsulfamoyl)phenyl]hydrazono}butanamide], the IC50 in test [1] was found to be 4.59 ± 0.43 µM; in test [2] it was 7.56 ± 0.27 µM; in test [3], 0.0243 ± 0.0034 µM; in test [4] it was 0.0153 ± 0.0031 µM.
Regarding `C#Cc1cccc(Nc2ncnc3cc(OCCOC)c(OCCOC)cc23)c1` [Erlotinib, reference compound], the IC50 was 12.9 ± 1.23 µM in test [1] and 17.5 ± 2.34 µM in test [2].
As to `C=CC(=O)Nc1cc(Nc2nccc(-c3cn(C)c4ccccc34)n2)c(OC)cc1N(C)CCN(C)C` [Osimertinib, reference compound], in test [1], the IC50 stood at 0.93 ± 0.09 µM.
